Experimental data from PubChem BioAssay (NCI).
Several values for one entry are separate records, joined by “and”; a condition that tells them apart may be missing. Identical values can stand only once.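 Assay format: 96-well plates, 48-hour exposure. GI50 = concentration required for 50% inhibition of growth. TGI is the concentration that stops growth completely.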

Tests used:
Experiment in all cases: NCI tumour cell line growth inhibition, 48 h
DLD-1 colon = test system: DLD-1 colon
KM20L2 colon = test system: KM20L2 colon
LXFL 529 NSCLC = test system: LXFL 529 NSCLC
M19-MEL melanoma = test system: M19-MEL melanoma
RXF-631 renal = test system: RXF-631 renal
DMS 114 small cell lung = test system: DMS 114 small cell lung
DU-145 prostate = test system: DU-145 prostate
MDA-MB-231 breast = test system: MDA-MB-231 breast
MDA-N = test system: MDA-N
P388 leukemia = test system: P388 leukemia
P388/ADR leukemia = test system: P388/ADR leukemia
SN12K1 renal = test system: SN12K1 renal

Work on `CC(C)N(C(=O)C12C3C4C1(I)C1C2C3(I)C41C(=O)N(C(C)C)C(C)C)C(C)C` (stereo not given) yielded a TGI (DLD-1 colon) greater than 100 µM, a TGI (KM20L2 colon) greater than 100 µM and a TGI (LXFL 529 NSCLC) greater than 100 µM. For the same molecule, the TGI (M19-MEL melanoma) was greater than 70.9 µM and the TGI (RXF-631 renal) was greater than 100 µM.

In the case of `CC(C)C(=O)Nc1nc2c(ncn2C2OC(CO)C(O)C2O)c(=O)[nH]1` (stereo not given), the TGI (DLD-1 colon) is reported as greater than 100 µM, the TGI (DMS 114 small cell lung) is reported as greater than 100 µM and the TGI (KM20L2 colon) is reported as greater than 100 µM. The TGI (LXFL 529 NSCLC) was greater than 100 µM, the TGI (M19-MEL melanoma) was greater than 100 µM and the TGI (RXF-631 renal) was greater than 100 µM.

`COC(=O)[C@H]1C=C[C@@H](C)n2c(=O)c3cc4ccccc4cc3c(=O)n21` gave a TGI (DLD-1 colon) greater than 100 µM, a TGI (DMS 114 small cell lung) greater than 100 µM and a TGI (KM20L2 colon) greater than 100 µM. For the same molecule, the TGI (LXFL 529 NSCLC) was greater than 100 µM, the TGI (M19-MEL melanoma) was greater than 100 µM and the TGI (RXF-631 renal) was greater than 100 µM.

Molecule `COC(=O)/C=C1\CCC(C)O1` (stereo not given) has a TGI (DLD-1 colon) greater than 100 µM, a TGI (DMS 114 small cell lung) greater than 100 µM and a TGI (KM20L2 colon) greater than 100 µM. The TGI (LXFL 529 NSCLC) was greater than 100 µM, the TGI (M19-MEL melanoma) was greater than 100 µM and the TGI (RXF-631 renal) was greater than 100 µM.

In the case of `O=C(O)CC(NC(=O)CP(=O)(O)O)C(=O)O` (stereo not given), the TGI (DLD-1 colon) is reported as 9920 µM, the TGI (DMS 114 small cell lung) is reported as greater than 10000 µM and the TGI (DU-145 prostate) is reported as greater than 10000 µM. For the same molecule, the TGI (KM20L2 colon) was greater than 10000 µM, the TGI (M19-MEL melanoma) was greater than 10000 µM and the TGI (MDA-MB-231 breast) was greater than 10000 µM. It also gave a GI50 (MDA-N) of 54.1 µM, a TGI (MDA-N) greater than 10000 µM and a TGI (P388 leukemia) greater than 5860 µM. It also gave a TGI (P388/ADR leukemia) greater than 8350 µM and a TGI (SN12K1 renal) greater than 10000 µM.

For `CC(C)N(CCn1c2c3ccccc3ccc2c2oc(=O)c3ccccc3c21)C(C)C`, the TGI (DLD-1 colon) was greater than 100 µM, the TGI (DMS 114 small cell lung) was greater than 100 µM and the TGI (KM20L2 colon) was greater than 100 µM. It also gave a TGI (LXFL 529 NSCLC) greater than 100 µM, a TGI (M19-MEL melanoma) greater than 100 µM and a TGI (RXF-631 renal) greater than 100 µM.

`Cc1cc(NS(=O)(=O)c2ccc(Nc3c4ccccc4nc4c(C(=O)N5CCN(CCO)CC5)ccc(Cl)c34)cc2)no1` gave a TGI (DLD-1 colon) greater than 100 µM, a TGI (DMS 114 small cell lung) greater than 100 µM and a TGI (KM20L2 colon) greater than 100 µM. The TGI (M19-MEL melanoma) was greater than 100 µM and the TGI (RXF-631 renal) was greater than 100 µM.

Work on `Cc1cc(C)nc(NS(=O)(=O)c2ccc(NC(=O)c3cccc4c(Nc5ccc(S(N)(=O)=O)cc5)c5ccccc5nc34)cc2)n1` yielded a TGI (DLD-1 colon) greater than 100 µM, a TGI (DMS 114 small cell lung) of 42.6 µM and a TGI (KM20L2 colon) greater than 100 µM. For the same molecule, the TGI (LXFL 529 NSCLC) was greater than 100 µM, the TGI (M19-MEL melanoma) was 46.5 µM and the TGI (RXF-631 renal) was greater than 100 µM.

`O=C1OCC2C1C1c3ccccc3C(O)c3ccccc3C21` (stereo not given) gave a TGI (DLD-1 colon) greater than 100 µM, a TGI (DMS 114 small cell lung) greater than 100 µM and a TGI (KM20L2 colon) greater than 100 µM. It also gave a TGI (LXFL 529 NSCLC) greater than 100 µM, a TGI (M19-MEL melanoma) greater than 100 µM and a TGI (RXF-631 renal) greater than 100 µM.

For `CC(=O)O[C@H]1CCC2[C@@H]3CCC4Nc5[nH]ncc5C[C@]4(C)C3CC[C@@]21C` (stereo not given in full), the TGI (DMS 114 small cell lung) was greater than 100 µM, the TGI (KM20L2 colon) was greater than 100 µM and the TGI (LXFL 529 NSCLC) was greater than 100 µM. The TGI (M19-MEL melanoma) was greater than 100 µM and the TGI (RXF-631 renal) was greater than 100 µM.

`CC[C@H]1CN2CCc3cc(OC)c(OC)cc3[C@@H]2C[C@@H]1C[C@H]1NCCc2c1[nH]c1ccc(O)cc21` was tested, and the GI50 (DLD-1 colon) was 0.144 µM, the TGI (DLD-1 colon) was 0.246 µM and 0.57 µM and 1.58 µM and the GI50 (DMS 114 small cell lung) was 0.0047 µM and 0.0133 µM. The TGI (DMS 114 small cell lung) was 0.0184 µM and 0.0571 µM, the GI50 (DU-145 prostate) was 0.0249 µM and the TGI (DU-145 prostate) was 0.0584 µM. The GI50 (KM20L2 colon) was 0.0317 µM and 0.0549 µM, the TGI (KM20L2 colon) was 0.0858 µM and 0.47 µM and 0.241 µM and the GI50 (M19-MEL melanoma) was 0.0164 µM and 0.0241 µM. The TGI (M19-MEL melanoma) was 0.0461 µM and 0.076 µM and < 0.0112 µM, the GI50 (MDA-MB-231 breast) was 0.0153 µM and the TGI (MDA-MB-231 breast) was 0.0483 µM. For the same molecule, the GI50 (MDA-N) was 0.0234 µM, the TGI (MDA-N) was 0.0568 µM and 0.182 µM and the TGI (P388/ADR leukemia) was greater than 100 µM. It also gave a TGI (SN12K1 renal) of 2.64 µM.

In the case of `COC(=O)/C=C/c1c(CC=C(C)C)ncn1C`, the TGI (DLD-1 colon) is reported as greater than 100 µM, the TGI (DMS 114 small cell lung) is reported as greater than 100 µM and the TGI (KM20L2 colon) is reported as greater than 65.8 µM. For the same molecule, the TGI (LXFL 529 NSCLC) was greater than 100 µM, the TGI (M19-MEL melanoma) was greater than 100 µM and the TGI (RXF-631 renal) was greater than 100 µM.

`CNS(=O)(=O)NNS(=O)(=O)c1ccc(Br)cc1` gave a TGI (DLD-1 colon) greater than 100 µM, a TGI (DMS 114 small cell lung) greater than 100 µM and a TGI (KM20L2 colon) greater than 100 µM. It also gave a TGI (LXFL 529 NSCLC) greater than 100 µM, a TGI (M19-MEL melanoma) greater than 100 µM and a TGI (RXF-631 renal) greater than 100 µM.

`CCCO/S(=N\S(=O)(=O)c1ccccc1)c1ccccc1[N+](=O)[O-]` (stereo not given) was tested, and the TGI (DLD-1 colon) was greater than 100 µM, the TGI (DMS 114 small cell lung) was greater than 100 µM and the TGI (KM20L2 colon) was greater than 100 µM. The TGI (LXFL 529 NSCLC) was greater than 100 µM, the TGI (M19-MEL melanoma) was greater than 100 µM and the TGI (RXF-631 renal) was greater than 100 µM.

Work on `O=C(/C=C/c1ccccc1Cl)NC1C=Nc2ccc([N+](=O)[O-])cc2NC1` (stereo not given) yielded a TGI (DLD-1 colon) greater than 100 µM, a TGI (DMS 114 small cell lung) greater than 100 µM and a TGI (KM20L2 colon) greater than 100 µM. For the same molecule, the TGI (LXFL 529 NSCLC) was greater than 100 µM and the TGI (M19-MEL melanoma) was greater than 100 µM.

Work on `COC1(OC)CC2C(=O)N(Cc3ccccc3)C1C=C2S(=O)(=O)c1ccccc1` (stereo not given) yielded a TGI (DLD-1 colon) of 27.6 µM, a TGI (DMS 114 small cell lung) of 31.9 µM and a TGI (KM20L2 colon) of 33.1 µM. It also gave a TGI (LXFL 529 NSCLC) of 34.2 µM and a TGI (M19-MEL melanoma) of 30.4 µM.

In the case of `Cc1nc([N+](=O)[O-])cn1CC(=N)N`, the TGI (DLD-1 colon) is reported as greater than 100 µM, the TGI (DMS 114 small cell lung) is reported as greater than 100 µM and the TGI (KM20L2 colon) is reported as greater than 100 µM. For the same molecule, the TGI (LXFL 529 NSCLC) was greater than 100 µM, the TGI (M19-MEL melanoma) was greater than 100 µM and the TGI (RXF-631 renal) was greater than 100 µM.

`CCOP(=O)(OCC)OC1C=CC2CCC1C2` (stereo not given) showed a TGI (DLD-1 colon) greater than 100 µM, a TGI (DMS 114 small cell lung) greater than 100 µM and a TGI (KM20L2 colon) greater than 100 µM. It also gave a TGI (LXFL 529 NSCLC) greater than 100 µM and a TGI (RXF-631 renal) greater than 100 µM.

In the case of `N#CC(C(=O)C(=O)Nc1ccc(Cl)cc1)c1ccccc1` (stereo not given), the TGI (DLD-1 colon) is reported as greater than 100 µM, the TGI (DMS 114 small cell lung) is reported as greater than 100 µM and the TGI (KM20L2 colon) is reported as greater than 100 µM. The TGI (LXFL 529 NSCLC) was greater than 100 µM, the TGI (M19-MEL melanoma) was greater than 100 µM and the TGI (RXF-631 renal) was greater than 100 µM.

Work on `CC(C)C(=O)NS(=O)(=O)c1ccccc1` yielded a TGI (DLD-1 colon) greater than 100 µM, a TGI (DMS 114 small cell lung) greater than 100 µM and a TGI (KM20L2 colon) greater than 100 µM. For the same molecule, the TGI (LXFL 529 NSCLC) was greater than 100 µM, the TGI (M19-MEL melanoma) was greater than 100 µM and the TGI (RXF-631 renal) was greater than 100 µM.

For `C/C(CC(=O)Nc1cccc(Cl)c1C)=N\NC(=O)c1ccncc1`, the TGI (DLD-1 colon) was greater than 100 µM, the TGI (DMS 114 small cell lung) was greater than 100 µM and the TGI (KM20L2 colon) was greater than 100 µM. It also gave a TGI (LXFL 529 NSCLC) greater than 100 µM and a TGI (M19-MEL melanoma) greater than 100 µM.

Molecule `Cc1cc(S(=O)(=O)O)c(NC(=O)C(=O)Cc2cc(=O)oc3cc(O)ccc23)cc1Cl` has a TGI (DLD-1 colon) greater than 100 µM, a TGI (DMS 114 small cell lung) greater than 100 µM and a TGI (KM20L2 colon) greater than 100 µM. It also gave a TGI (M19-MEL melanoma) greater than 100 µM and a TGI (RXF-631 renal) greater than 100 µM.

`CCCN1CN(C(C(=O)N[C@@H]2C(=O)N3C2SC(C)(C)C3C(=O)O)c2ccc(O)cc2)CSC1=S` (stereo not given in full) showed a TGI (DLD-1 colon) greater than 100 µM, a TGI (DMS 114 small cell lung) of 65.3 µM and a TGI (KM20L2 colon) greater than 100 µM. The TGI (LXFL 529 NSCLC) was greater than 100 µM and the TGI (M19-MEL melanoma) was greater than 100 µM.

In the case of `CN[C@@H](C)[C@@H](NC)c1ccccc1`, the TGI (DLD-1 colon) is reported as greater than 100 µM, the TGI (DMS 114 small cell lung) is reported as greater than 100 µM and the TGI (LXFL 529 NSCLC) is reported as greater than 100 µM. For the same molecule, the TGI (M19-MEL melanoma) was greater than 100 µM and the TGI (RXF-631 renal) was greater than 100 µM.

`Cc1cccc(C)c1NC(=O)C(=O)C(C(=O)c1ccccc1-c1ccccc1)C1OC(=O)c2ccccc21` (stereo not given) was tested, and the TGI (DLD-1 colon) was 37.3 µM, the TGI (DMS 114 small cell lung) was 32.4 µM and the TGI (KM20L2 colon) was 67.7 µM. It also gave a TGI (LXFL 529 NSCLC) of 27.5 µM, a TGI (M19-MEL melanoma) of 34.7 µM and a TGI (RXF-631 renal) greater than 100 µM.
